Experimental data from PubChem BioAssay (NCI).
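GI50 = concentration required for 50% inhibition of growth. TGI marks complete inhibition of growth.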

How the values were obtained:
Test in all cases: inhibition of tumour cell growth, NCI panel, 384-well format
786-0 renal = test system: 786-0 renal
A498 renal = test system: A498 renal
A549 NSCLC = test system: A549 NSCLC
ACHN renal = test system: ACHN renal
BT-549 breast = test system: BT-549 breast
CAKI-1 renal = test system: CAKI-1 renal
CCRF-CEM leukemia = test system: CCRF-CEM leukemia
COLO 205 colon = test system: COLO 205 colon
DU-145 prostate = test system: DU-145 prostate
EKVX NSCLC = test system: EKVX NSCLC
HCC-2998 colon = test system: HCC-2998 colon
HCT-15 colon = test system: HCT-15 colon
HL-60(TB) leukemia = test system: HL-60(TB) leukemia
HOP-62 NSCLC = test system: HOP-62 NSCLC
HT29 colon = test system: HT29 colon
IGROV1 ovarian = test system: IGROV1 ovarian
K-562 leukemia = test system: K-562 leukemia
KM12 colon = test system: KM12 colon
LOX IMVI melanoma = test system: LOX IMVI melanoma
M14 melanoma = test system: M14 melanoma
MALME-3M melanoma = test system: MALME-3M melanoma
MCF7 breast = test system: MCF7 breast
MDA-MB-231 breast = test system: MDA-MB-231 breast
MDA-MB-435 melanoma = test system: MDA-MB-435 melanoma
MDA-MB-468 breast = test system: MDA-MB-468 breast
MOLT-4 leukemia = test system: MOLT-4 leukemia
NCI-H226 lung = test system: NCI-H226 lung
NCI-H23 lung = test system: NCI-H23 lung
NCI-H322M lung = test system: NCI-H322M lung
NCI-H460 NSCLC = test system: NCI-H460 NSCLC
NCI-H522 lung = test system: NCI-H522 lung
NCI/ADR-RES ovarian = test system: NCI/ADR-RES ovarian
OVCAR-3 ovarian = test system: OVCAR-3 ovarian
OVCAR-4 ovarian = test system: OVCAR-4 ovarian
OVCAR-5 ovarian = test system: OVCAR-5 ovarian
OVCAR-8 ovarian = test system: OVCAR-8 ovarian
PC-3 prostate = test system: PC-3 prostate
RPMI-8226 leukemia = test system: RPMI-8226 leukemia
RXF 393 renal = test system: RXF 393 renal
SF-268 CNS = test system: SF-268 CNS
SF-295 CNS = test system: SF-295 CNS
SF-539 CNS = test system: SF-539 CNS
SK-MEL-28 melanoma = test system: SK-MEL-28 melanoma
SK-MEL-5 melanoma = test system: SK-MEL-5 melanoma
SK-OV-3 ovarian = test system: SK-OV-3 ovarian
SN12C renal = test system: SN12C renal
SNB-19 CNS = test system: SNB-19 CNS
SNB-75 CNS = test system: SNB-75 CNS
SR leukemia = test system: SR leukemia
SW-620 colon = test system: SW-620 colon
T-47D breast = test system: T-47D breast
TK-10 renal = test system: TK-10 renal
UACC-257 melanoma = test system: UACC-257 melanoma
UACC-62 melanoma = test system: UACC-62 melanoma
UO-31 renal = test system: UO-31 renal

In the case of `Cc1nc2ccc(CN(C)c3ccc(C(=O)N[C@@H](CCC(=O)O)C(=O)O)s3)cc2c(=O)[nH]1`, the GI50 ([…]-0 renal) is reported as < 10 nM, the TGI (786-0 renal) is reported as > 100000 nM and the GI50 (A498 renal) is reported as < 10 nM. For the same compound, the TGI (A498 renal) was > 100000 nM, the GI50 (A549 NSCLC) was < 10 nM and the TGI (A549 NSCLC) was > 100000 nM. For the same compound, the GI50 (ACHN renal) was < 10 nM, the TGI (ACHN renal) was > 100000 nM and the GI50 (BT-549 breast) was < 10 nM. For the same compound, the TGI (BT-549 breast) was > 100000 nM, the GI50 (CAKI-1 renal) was < 10 nM and the TGI (CAKI-1 renal) was > 100000 nM. The GI50 (CCRF-CEM leukemia) was < 10 nM, the TGI (CCRF-CEM leukemia) was < 10 nM and the GI50 (COLO 205 colon) was < 10 nM. The TGI (COLO 205 colon) was > 100000 nM, the GI50 (DU-145 prostate) was < 10 nM and the TGI (DU-145 prostate) was > 100000 nM. For the same compound, the GI50 (EKVX NSCLC) was > 100000 nM, the TGI (EKVX NSCLC) was > 100000 nM and the GI50 (HCC-2998 colon) was < 10 nM. The TGI (HCC-2998 colon) was > 100000 nM, the GI50 (HCT-15 colon) was < 10 nM and the TGI (HCT-15 colon) was > 100000 nM. The GI50 (HL-60(TB) leukemia) was < 10 nM, the TGI (HL-60(TB) leukemia) was < 10 nM and the GI50 (HOP-62 NSCLC) was < 10 nM. For the same compound, the TGI (HOP-62 NSCLC) was 19.5 nM, the GI50 (HT29 colon) was < 10 nM and the TGI (HT29 colon) was > 100000 nM. The GI50 (IGROV1 ovarian) was 46.2 nM, the TGI (IGROV1 ovarian) was > 100000 nM and the GI50 (K-562 leukemia) was < 10 nM. The TGI (K-562 leukemia) was > 100000 nM, the GI50 (KM12 colon) was > 100000 nM and the TGI (KM12 colon) was > 100000 nM. For the same compound, the GI50 (LOX IMVI melanoma) was < 10 nM, the TGI (LOX IMVI melanoma) was > 100000 nM and the GI50 (M14 melanoma) was < 10 nM. For the same compound, the TGI (M14 melanoma) was < 10 nM, the GI50 (MALME-3M melanoma) was 17.9 nM and the TGI (MALME-3M melanoma) was > 100000 nM. For the same compound, the GI50 (MCF7 breast) was < 10 nM, the TGI (MCF7 breast) was > 100000 nM and the GI50 (MDA-MB-231 breast) was 8370 nM. The TGI (MDA-MB-231 breast) was > 100000 nM, the GI50 (MDA-MB-435 melanoma) was < 10 nM and the TGI (MDA-MB-435 melanoma) was > 100000 nM. For the same compound, the GI50 (MDA-MB-468 breast) was > 100000 nM, the TGI (MDA-MB-468 breast) was > 100000 nM and the GI50 (MOLT-4 leukemia) was < 10 nM. The TGI (MOLT-4 leukemia) was < 10 nM, the GI50 (NCI-H226 lung) was 55500 nM and the TGI (NCI-H226 lung) was > 100000 nM. For the same compound, the GI50 (NCI-H23 lung) was 490 nM, the TGI (NCI-H23 lung) was > 100000 nM and the GI50 (NCI-H322M lung) was > 100000 nM. The TGI (NCI-H322M lung) was > 100000 nM, the GI50 (NCI-H460 NSCLC) was < 10 nM and the TGI (NCI-H460 NSCLC) was > 100000 nM. For the same compound, the GI50 (NCI-H522 lung) was < 10 nM, the TGI (NCI-H522 lung) was < 10 nM and the GI50 (NCI/ADR-RES ovarian) was < 10 nM. The TGI (NCI/ADR-RES ovarian) was < 10 nM, the GI50 (OVCAR-3 ovarian) was < 10 nM and the TGI (OVCAR-3 ovarian) was > 100000 nM. For the same compound, the GI50 (OVCAR-4 ovarian) was > 100000 nM, the TGI (OVCAR-4 ovarian) was > 100000 nM and the GI50 (OVCAR-5 ovarian) was < 10 nM. The TGI (OVCAR-5 ovarian) was > 100000 nM, the GI50 (OVCAR-8 ovarian) was < 10 nM and the TGI (OVCAR-8 ovarian) was > 100000 nM. For the same compound, the GI50 (PC-3 prostate) was < 10 nM, the TGI (PC-3 prostate) was > 100000 nM and the GI50 (RPMI-8226 leukemia) was < 10 nM. The TGI (RPMI-8226 leukemia) was < 10 nM, the GI50 (RXF 393 renal) was 11.9 nM and the TGI (RXF 393 renal) was > 100000 nM. The GI50 (SF-268 CNS) was < 10 nM, the TGI (SF-268 CNS) was < 10 nM and the GI50 (SF-295 CNS) was < 10 nM. The TGI (SF-295 CNS) was < 10 nM, the GI50 (SF-539 CNS) was < 10 nM and the TGI (SF-539 CNS) was > 100000 nM. For the same compound, the GI50 (SK-MEL-28 melanoma) was < 10 nM, the TGI (SK-MEL-28 melanoma) was > 100000 nM and the GI50 (SK-MEL-5 melanoma) was > 100000 nM. For the same compound, the TGI (SK-MEL-5 melanoma) was > 100000 nM, the GI50 (SK-OV-3 ovarian) was < 10 nM and the TGI (SK-OV-3 ovarian) was > 100000 nM. The GI50 (SN12C renal) was < 10 nM, the TGI (SN12C renal) was < 10 nM and the GI50 (SNB-19 CNS) was < 10 nM. For the same compound, the TGI (SNB-19 CNS) was 98.7 nM, the GI50 (SNB-75 CNS) was < 10 nM and the TGI (SNB-75 CNS) was > 100000 nM. For the same compound, the GI50 (SR leukemia) was < 10 nM, the TGI (SR leukemia) was < 10 nM and the GI50 (SW-620 colon) was < 10 nM. The TGI (SW-620 colon) was > 100000 nM, the GI50 (T-47D breast) was < 10 nM and the TGI (T-47D breast) was > 100000 nM. The GI50 (TK-10 renal) was < 10 nM, the TGI (TK-10 renal) was > 100000 nM and the GI50 (UACC-257 melanoma) was 6070 nM. For the same compound, the TGI (UACC-257 melanoma) was > 100000 nM, the GI50 (UACC-62 melanoma) was 23.3 nM and the TGI (UACC-62 melanoma) was > 100000 nM. The GI50 (UO-31 renal) was < 10 nM and the TGI (UO-31 renal) was > 100000 nM.
